Here are results for 20 molecules from patent US9156840B2, “D2 antagonists, methods of synthesis and methods of use” (ALTOS THERAPEUTICS, LLC, priority 2010, dated 2015).

Where a name gives a salt, the structure may show the parent alone. Bounds are passed on as bounds.

As usually defined, the IC50 is the concentration that gives 50% inhibition.

T1 sequence (P14416 whole entry): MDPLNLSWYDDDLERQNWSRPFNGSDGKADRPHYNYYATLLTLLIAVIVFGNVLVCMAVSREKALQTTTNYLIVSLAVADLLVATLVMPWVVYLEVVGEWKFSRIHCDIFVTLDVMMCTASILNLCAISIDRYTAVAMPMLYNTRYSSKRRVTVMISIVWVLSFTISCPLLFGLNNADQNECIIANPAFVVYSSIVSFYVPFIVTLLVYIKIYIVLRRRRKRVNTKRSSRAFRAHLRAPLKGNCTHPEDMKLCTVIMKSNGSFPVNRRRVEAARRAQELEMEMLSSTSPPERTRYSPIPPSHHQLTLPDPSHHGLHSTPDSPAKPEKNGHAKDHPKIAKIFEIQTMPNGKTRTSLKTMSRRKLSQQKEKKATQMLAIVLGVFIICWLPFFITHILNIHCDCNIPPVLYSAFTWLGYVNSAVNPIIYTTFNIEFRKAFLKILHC

One assay has as its target T1, human D2 receptor (Homo sapiens, UniProt P14416).
T1 construct: expressed in transfected cells; cDNA from Origene clones TC308892 and SC123573
The assay can be described thus: D2 receptor radioligand binding assay (membranes of HEK-293 cells expressing human D2 receptor).
Details: not given
Here is the method:
Affinity for the dopamine D2 receptor was tested in vitro, and the following describes the construction of cell lines expressing human D2 receptor, as well as the binding assays themselves.
Establishment of Stable Cell Lines Expressing Either the Cloned Human D2S Receptor or the Cloned Human D2L Receptor.
The human D2 receptor exists in two isoforms: the short form (D2S) and the long form (D2L). The two isoforms are generated from the D2 gene by alternative splicing and the D2L isoform differs from the D2S isoform by the addition of 29 amino acids in the third intracellular loop of its protein structure.
To establish HEK-293 cell lines stably expressing either the human D2S or the human D2L, the human dopamine D2S receptor (Genebank Accession Number NM_016574) and human dopamine D2L receptor (Genebank Accession Number BC021195) were amplified by PCR from Origene cDNA clones TC308892 and SC123573 (respectively) using the following primers: 5-[…]-3 (SEQ ID NO: 1) sense and 5-[…]-3 (SEQ ID NO: 2) antisense. The resulting PCR products were respectively cloned into pENTR-D-TOPO (Invitrogen), sequenced and then transferred into the pCDNA3.2-DEST (Invitrogen) using the LR-clonasc gateway reaction (Invitrogen) and sequenced again to verify the genes sequence.
HEK293 cells were maintained in Eagles Minimum Essential Medium (MEM) supplemented with 0.292 g/L L-glutamine and 10% (v/v) fetal calf serum at 37° C. in a 5% CO2 humidified atmosphere. Cells were grown to 60-80% confluency in 10 cm dishes before transfection. Transfection of the D2S and D2L containing pcDNA3.2-DEST into HEK-293 cells were performed using Lipofectamine 2000 (Invitrogen). Transfected cells were seeded and diluted 2 days after transfection and maintained in culture medium supplemented with 500 μg/mL G418. The HEK-293 cell line expressing the huD2S (R2D2S) and the huD2L (R2D2L) were maintained in culture medium supplemented with 500 μg/mL G418.
D2 Receptor Binding Assays
HEK293 cells were in Eagles Minimum Essential Medium (MEM) supplemented with 10% FBS, 0.292 g/liter L-glutamine, 10^5 units/liter penicillin, 100 mg/liter streptomycin and […] Geneticin at 37° C. in a 5% CO2 humidified atmosphere. Cells were grown to 80-90% confluence and harvested with cell stripper (Cellgro #25-056-CI). Cells were then washed with PBS (2×). Cells were either pelleted and frozen at −80° C. or membranes were prepared immediately.
Cells from pellet were resuspended in homogenization buffer (15 mM Tris*HCl, 2 mM MgCl2*6H2O, 0.3 mM EDTA, 1 mM EGTA pH 7.4 @ 4° C.). Cells were then homogenized using a Polytron (PT 1200) homogenizer at setting 6 for 10 seconds. Crude membranes were pelleted at 39, 412 g for 15 min, at 4° C. (2×) in a Sorval RC6 plus centrifuge. Membranes were finally resuspended in resuspension buffer (50 mM Tris*HCl, 120 mM NaCl, 10 mM MgCl2*6H2O, 1 mM EDTA pH 7.4 @ 4° C.) and sonicated (Fisher Sonic Dismembrator) at setting 5 for 10 seconds.
The radioligand binding assays were conducted in microtiter plates (Costar #3961) with a final volume of 1.0 mL.
The membranes were thawed at room temperature, briefly homogenized using a sonicator, diluted in assay buffer and kept on wet ice until being added to the assay plate. Membranes were diluted to a final target tissue concentration of 10 μg protein per well. The specific binding should be greater than 80% with less than 10% total radioligand bound to minimize ligand depletion errors.
First compound of the invention (50 μL) or assay buffer (50 mM Tris*HCl, 120 mM NaCl, 5 mM MgCl2*6H2O, 1 mM EDTA, 5 mM KCl pH 7.4 @37° C. plus 0.025% BSA), buffer (700 μL) and then membrane (200 μL) were added to the deep well assay plate, which was then shaken for 10 minutes. Finally, radioligand (50 μL) was added.
The assay plates were incubated at 37° C. for 120 minutes.
The assay plate were filtered over 0.3% PEI pretreated glass fiber filtermats (GF/C) using a Packard Filtermate cell harvester. […]
Molecule `O=C(O[C@H]1CN2CCC1CC2)c1cccc(CN2CN(c3ccccc3)C3(CCN(CCCn4c(=O)[nH]c5ccccc54)CC3)C2=O)c1` [Compound 26, (R)-Quinuclidin-3-yl 3-((4-oxo-8-(3-(2-oxo-2,3-dihydro-1H-benzo[d]imidazol-1-yl)propyl)-1-phenyl-1,3,8-triazaspiro[4.5]decan-3-yl)methyl)benzoate] showed an IC50 of less than 10 nM.

The same assay, now with this note: radioligand displacement, HEK293 membranes, 37° C. for 120 minutes; read-out: Affinity Score (IC50 values for D2 on a scale of 1 through 5).
As for `O=C(O)c1ccc(N2CN(c3ccccc3)C3(CCN(CCCC(=O)c4ccccc4)CC3)C2=O)cc1` [Compound 182, 4-(4-Cho-8-(4-oxo-4-phenylbutyl)-1-phenyl-1,3,8-triazaspiro[4.5]decan-3-yl)benzoic acid, hydrochloride], the 50% inhibitory concentration (IC50) was less than 10 nM.

On to `O=C(O)c1cccc(CN2CN(c3ccccc3)C3(CCN(CC4COc5ccccc5O4)CC3)C2=O)c1` (centres unmarked) [Compound 76, 3-((8-((2,3-Dihydrobenzo[b][1,4]dioxin-2-yl)methyl)-4-oxo-1-phenyl-1,3,8-triazaspiro[4.5]decan-3-yl)methyl)benzoic acid], for which the IC50 is less than 10 nM.

For the molecule `O=C(O)c1ccc(CN2CN(c3ccccc3)C3(CCN(CCCn4c(=O)[nH]c5ccccc54)CC3)C2=O)cc1` [Compound 17, 4-((4-Oxo-8-(3-(2-oxo-2,3-dihydro-1H-benzo[d]imidazol-1-yl)propyl)-1-phenyl-1,3,8-triazaspiro[4.5]decan-3-yl)methyl)benzoic acid], the IC50 was less than 10 nM.

In the case of `O=C(O)c1cccc(CN2CN(c3ccc(F)cc3)C3(CCN(CCCN4C(=O)C5(CC5)c5ccccc54)CC3)C2=O)c1` [Compound 138, 3-((1-(4-Fluorophenyl)-4-oxo-8-(3-(2′-oxospiro[cyclopropane-1,3′-indoline]-1′-yl)propyl)-1,3,8-triazaspiro[4.5]decan-3-yl)methyl)benzoic acid], the IC50 was less than 10 nM.

With `O=C(O)c1cccc(CN2CN(C3CCCCC3)C3(CCN(CCCn4c(=O)[nH]c5ccccc54)CC3)C2=O)c1` [Compound 72, 3-((1-cyclohexyl-4-oxo-8-(3-(2-oxo-2,3-dihydro-1H-benzo[d]imidazol-1-yl)propyl)-1,3,8-triazaspiro[4.5]decan-3-yl)methyl)benzoic acid, formate], the IC50 is less than 10 nM.

For the molecule `O=C(O)c1ccccc1CN1CN(c2ccccc2)C2(CCN(CCCn3c(=O)n(C4CC4)c4ccccc43)CC2)C1=O` [Compound 155, 2-((8-(3-(3-cyclopropyl-2-oxo-2,3-dihydro-1H-benzo[d]imidazol-1-yl)propyl)-4-oxo-1-phenyl-1,3,8-triazaspiro[4.5]decan-3-yl)methyl)benzoic acid], the concentration for half-maximal inhibition (IC50) was less than 10 nM.

As to `CS(=O)(=O)Nc1ccc(CN2CN(c3ccccc3)C3(CCN(CCCC(=O)c4ccccc4)CC3)C2=O)cc1` [Compound 186, N-(4-((4-oxo-8-(4-oxo-4-phenylbutyl)-1-phenyl-1,3,8-triazaspiro[4.5]decan-3-yl)methyl)phenyl)methanesulfonamide], the IC50 is less than 10 nM.

Regarding `CS(=O)(=O)Nc1ccc(N2CN(c3ccccc3)C3(CCN(CCCN4C(=O)C5(CC5)c5ccccc54)CC3)C2=O)cc1` [Compound 216, N-(4-(4-Oxo-8-(3-(2′-oxospiro[cyclopropane-1,3′-indoline]-1′-yl)propyl)-1-phenyl-1,3,8-triazaspiro[4.5]decan-3-yl)phenyl)methanesulfonamide], the IC50 is less than 10 nM.

In the case of `CC1(C)C(=O)N(CCCN2CCC3(CC2)C(=O)N(c2ccc(NS(C)(=O)=O)cc2)CN3c2ccccc2)c2ccccc21` [Compound 217, N-(4-(8-(3-(3,3-Dimethyl-2-oxoindolin-1-yl)propyl)-4-oxo-1-phenyl-1,3,8-triazaspiro[4.5]decan-3-yl)phenyl)methanesulfonamide], the 50% inhibitory concentration (IC50) is less than 10 nM.

For `CS(=O)(=O)Nc1cccc(CN2CN(c3ccccc3)C3(CCN(CCCN4C(=O)C5(CC5)c5ccccc54)CC3)C2=O)c1` [Compound 212, N-(3-((4-Oxo-8-(3-(2′-oxospiro[cyclopropane-1,3′-indoline]-1′-yl)propyl)-1-phenyl-1,3,8-triazaspiro[4.5]decan-3-yl)methyl)phenyl)methanesulfonamide], the IC50 was less than 10 nM.

As to `CC1(C)C(=O)N(CCCN2CCC3(CC2)C(=O)N(Cc2ccccc2C(=O)O)CN3c2ccccc2)c2ccccc21` [Compound 137, 2-((8-(3-(3,3-Dimethyl-2-oxoindolin-1-yl)propyl)-4-oxo-1-phenyl-1,3,8-triazaspiro[4.5]decan-3-yl)methyl)benzoic acid], the IC50 was less than 10 nM.

For `COC(=O)[C@@H](c1ccccc1)N1CN(c2ccccc2)C2(CCN(CCCn3c(=O)[nH]c4ccccc43)CC2)C1=O` [Compound 34, (R)-methyl 2-(4-oxo-8-(3-(2-oxo-2,3-dihydro-1H-benzo[d]imidazol-1-yl)propyl)-1-phenyl-1,3,8-triazaspiro[4.5]decan-3-yl)-2-phenylacetate], the IC50 was less than 10 nM.

For `COC(=O)c1cccc(CN2CN(c3ccccc3)C3(CCN(CCCc4c[nH]c5ccccc45)CC3)C2=O)c1` [Compound 57, methyl 3-((8-(3-(1H-indol-3-yl)propyl)-4-oxo-1-phenyl-1,3,8-triazaspiro[4.5]decan-3-yl)methyl)benzoate], the half-maximal inhibitory concentration (IC50) was less than 10 nM.

As for `CC1(F)C(=O)N(CCCN2CCC3(CC2)C(=O)N(Cc2cccc(C(=O)O)c2)CN3c2ccc(F)cc2)c2ccccc21` (centres unmarked) [Compound 164, 3-((8-(3-(3-Fluoro-3-methyl-2-oxoindolin-1-yl)propyl)-1-(4-fluorophenyl)-4-oxo-1,3,8-triazaspiro[4.5]decan-3-yl)methyl)benzoic acid], the IC50 was less than 10 nM.

On to `O=C(CCCCCN1CN(c2ccccc2)C2(CCN(CCCn3c(=O)[nH]c4ccccc43)CC2)C1=O)OCc1ccccc1` [Compound 21, Benzyl 6-(4-oxo-8-(3-(2-oxo-2,3-dihydro-1H-benzo[d]imidazol-1-yl)propyl)-1-phenyl-1,3,8-triazaspiro[4.5]decan-3-yl)hexanoate], for which the IC50 is less than 10 nM.

Turning to `CN1CCN(C(=O)COC(=O)c2cccc(CN3CN(c4ccccc4)C4(CCN(CCCn5c(=O)[nH]c6ccccc65)CC4)C3=O)c2)CC1` [Compound 35, 2-(4-Methylpiperazin-1-yl)-2-oxoethyl 3-((4-oxo-8-(3-(2-oxo-2,3-dihydro-1H-benzo[d]imidazol-1-yl)propyl)-1-phenyl-1,3,8-triazaspiro[4.5]decan-3-yl)methyl)benzoate], the IC50 was less than 10 nM.

`O=C(O)[C@@H](c1ccccc1)N1CN(c2ccccc2)C2(CCN(CCCN3C(=O)Cc4ccccc43)CC2)C1=O` [Compound 166, (R)-2-(4-oxo-8-(3-(2-oxoindolin-1-yl)propyl)-1-phenyl-1,3,8-triazaspiro[4.5]decan-3-yl)-2-phenylacetic acid]: the IC50 is less than 10 nM.

Regarding `O=C(O)c1cccc(CN2CN(c3ccccc3)C3(CCN(CCCC4C(=O)Nc5ccccc54)CC3)C2=O)c1` (centres unmarked) [Compound 160, 3-((4-oxo-8-(3-(2-oxoindolin-3-yl)propyl)-1-phenyl-1,3,8-triazaspiro[4.5]decan-3-yl)methyl)benzoic acid, hydrochloride], the IC50 was less than 10 nM.

In the case of `O=C(OCCN1CCOCC1)c1cccc(CN2CN(c3ccccc3)C3(CCN(CCCn4c(=O)[nH]c5ccccc54)CC3)C2=O)c1` [Compound 25, 2-Morpholinoethyl 3-((4-oxo-8-(3-(2-oxo-2,3-dihydro-1H-benzo[d]imidazol-1-yl)propyl)-1-phenyl-1,3,8-triazaspiro[4.5]decan-3-yl)methyl)benzoate], the IC50 was less than 10 nM.
